Measurements reported in patent EP0422215B1, “ANTIBACTERIAL AND AN[…]” (THE ROCKEFELLER UNIVERSITY, priority 1989, dated 1990).
Where no end group is shown, it is not given here.

Legend:
Format in all cases: cell-based
[1] = system: B. subtilis Bsll; conditions: overnight incubation at 30°C; for LETHAL CONCENTRATION Bsll + ME: B. subtilis, plates prepared with medium E; for LETHAL CONCENTRATION Bsll: Bsll = B. subtilis, thin agarose plates
Experimental: (§1) The products of the invention were tested for activity against a variety of test organisms selected to represent a number of different types of pathogens some of them known to be particularly virulent by the inhibition zone assay of Hoffmann et al. (1981) Insect Biochem. 11 537-548. Thin agar or agarose plates (8.5 cm diameter) were prepared with 6 ml of rich medium containing 100 µg/ml of streptomycin and 2 x 10^5 viable cells of a test organism resistant to streptomycin. Wells of […] were punched in the plates and 3 µl of serially diluted samples were placed in the wells. The diameters of the zones of inhibition around the wells were measured after overnight incubation at 30° or 37°C. For each peptide the squares of the zone diameters were plotted against the logarithm of the concentration, and from the slopes and intercepts the lethal concentrations were calculated as described by Hultmark (1983) EMBO J. 2, 571-76 or Hultmark et al. (1982) Eur. J. Biochem. 127 207-217.
(§2) Novel peptides CA(1-8)M(1-18), CA(1-9)M(1-17), CB(1-13)M(1-13), CA(1-17)M(1-9), CA(1-18)M(1-8), M(1-13)CA(1-22) and M(1-13)CA(1-13) were prepared as described above (see Examples 1-6). These novel peptides and CA, CB, and M were tested for activity against a variety of organisms selected to represent a number of different types of pathogens, some of them known to be particularly virulent, by the inhibition zone assay of Hoffmann et al. (1981), Insect Biochem. 11 537-48. As in Examples 1-6, thin agarose plates were prepared with the respective organisms. The diameters of the zones of inhibition were measured after overnight incubation at 30°C. The lethal concentrations were determined as described above (see Examples 1-6; Hultmark et al. articles cited thereat).

[2] = system: E. coli D21; conditions: thin agarose plates, overnight incubation at 30°C
Experimental: as §1, §2

[3] = system: P. aeruginosa OT97; conditions: thin agarose plates, overnight incubation at 30°C
Experimental: as §1, §2

[4] = system: S. aureus Cowan I; conditions: thin agarose plates, 30°C, * indicates flat concentration dependence
Experimental: as §1, §2

[5] = system: S. pyogenes; conditions: thin agarose plates, overnight incubation at 30°C
Experimental: as §1, §2

[6] = system: Sheep Red Cells; assay: lysis of sheep red blood cells (lysis assay or inhibition zone plate assay with SRC); conditions: for LETHAL CONCENTRATION SRC: SRC = Sheep Red Cells, ? indicates turbid zone (melittin gives clear zone); for concentration lytic to sheep red blood cells: stated in running text
Experimental: These values were obtained by either the lysis assay normally used for melittin or by an adaptation of the antibacterial inhibition zone assay of the above-cited Hultmark et al. articles to plates with sheep red cells (SRC). With respect to the latter, sterile agarose plates contained 6 ml of medium with 1% agarose, 0.9% NaCl and 10% SRC suspended in Alsevers solution. A dilution series of peptide was applied in 3mm wells each loaded with 3 µl of the respective samples. The plates were incubated at 30°C for 24 h, the zones were recorded and LC values calculated as described in the Hultmark et al. articles. Clear zones were recorded after a few hours of incubation and the use of such data gave an LC value of the same order as readings after 24 h. This plate assay is faster and more convenient than the lysis assay normally used for melittin.

| Compound | LETHAL CONCENTRATION Bsll + ME [1] | LETHAL CONCENTRATION Bsll [1] | LETHAL CONCENTRATION D21 [2] | LETHAL CONCENTRATION OT97 [3] | LETHAL CONCENTRATION Staph [4] | LETHAL CONCENTRATION Strep [5] | LETHAL CONCENTRATION SRC [6] | concentration lytic to sheep red blood cells [6] | fold improvement over natural melittin in lysis of red cells ([6]; compared with melittin) | concentration lytic to sheep red blood cells ([6]; listed as CA(1-13) M(1-13)) |
| --- | --- | --- | --- | --- | --- | --- | --- | --- | --- | --- |
| CC[C@H](C)[C@H](NC(=O)CNC(=O)[C@@H](NC(=O)[C@H](CCCCN)NC(=O)[C@H](CCCCN)NC(=O)[C@H](Cc1ccccc1)NC(=O)[C@H](CC(C)C)NC(=O)[C@H](CCCCN)NC(=O)[C@H](Cc1c[nH]c2ccccc12)NC(=O)[C@@H](N)CCCCN)[C@@H](C)CC)C(=O)NCC(=O)N[C@@H](C)C(=O)N[C@H](C(=O)N[C@@H](CC(C)C)C(=O)N[C@@H](CCCCN)C(=O)N[C@H](C(=O)N[C@@H](CC(C)C)C(=O)N[C@H](C(=O)N[C@H](C(=O)NCC(=O)N[C@@H](CC(C)C)C(=O)N1CCC[C@H]1C(=O)N[C@@H](C)C(=O)N[C@@H](CC(C)C)C(=O)N[C@H](C(=O)N[C@@H](CO)C(N)=O)[C@@H](C)CC)[C@@H](C)O)[C@@H](C)O)C(C)C)C(C)C [CA(1-8)M(1-18)] | 0.5 µM | 0.4 µM | 0.3 µM | 0.7 µM | 1 µM | 2 µM | >600 µM | – | – | – |
| CC[C@H](C)[C@H](NC(=O)CN)C(=O)NCC(=O)N[C@@H](C)C(=O)N[C@H](C(=O)N[C@@H](CC(C)C)C(=O)N[C@@H](CCCCN)C(=O)N[C@H](C(=O)N[C@@H](CC(C)C)C(=O)N[C@H](C(=O)N[C@H](C(=O)NCC(=O)N[C@@H](CC(C)C)C(=O)N[C@@H](CCCCN)C(=O)N[C@@H](Cc1c[nH]c2ccccc12)C(=O)N[C@@H](CCCCN)C(=O)N[C@@H](CC(C)C)C(=O)N[C@@H](Cc1ccccc1)C(=O)N[C@@H](CCCCN)C(=O)N[C@@H](CCCCN)C(=O)N[C@H](C(=O)N[C@@H](CCC(=O)O)C(=O)N[C@@H](CCCCN)C(=O)N[C@H](C(=O)NCC(=O)N[C@@H](CCC(N)=O)C(N)=O)C(C)C)[C@@H](C)CC)[C@@H](C)O)[C@@H](C)O)C(C)C)C(C)C [M(1-13)CA(1-13)] | 0.1 µM | 0.3 µM | 1 µM | 5 µM | 5* µM | 1 µM | 80? µM | – | – | – |
| CC[C@H](C)[C@H](NC(=O)CNC(=O)[C@@H]1CCCN1C(=O)CNC(=O)[C@H](C)NC(=O)[C@H](CCCCN)NC(=O)[C@@H](NC(=O)[C@@H](NC(=O)CNC(=O)[C@H](CC(=O)O)NC(=O)[C@H](CCCNC(=N)N)NC(=O)[C@@H](NC(=O)[C@H](CC(N)=O)NC(=O)[C@H](CCC(N)=O)NC(=O)CNC(=O)[C@@H](NC(=O)[C@H](CCCCN)NC(=O)[C@H](CCC(=O)O)NC(=O)[C@@H](NC(=O)[C@H](CCCCN)NC(=O)[C@H](CCCCN)NC(=O)[C@H](Cc1ccccc1)NC(=O)[C@H](CC(C)C)NC(=O)[C@H](CCCCN)NC(=O)[C@H](Cc1c[nH]c2ccccc12)NC(=O)[C@@H](N)CCCCN)[C@@H](C)CC)C(C)C)[C@@H](C)CC)[C@@H](C)CC)[C@@H](C)CC)C(=O)NCC(=O)N[C@@H](C)C(=O)N[C@H](C(=O)N[C@@H](CC(C)C)C(=O)N[C@@H](CCCCN)C(=O)N[C@H](C(=O)N[C@@H](CC(C)C)C(=O)N[C@H](C(=O)N[C@H](C(=O)NCC(=O)N[C@@H](CC(C)C)C(N)=O)[C@@H](C)O)[C@@H](C)O)C(C)C)C(C)C [CA(1-24)M(1-13)] | – | – | – | – | – | – | – | > 100 µM | – | – |
| CC[C@H](C)[C@H](NC(=O)CNC(=O)[C@H](CCCNC(=N)N)NC(=O)CNC(=O)[C@H](CCSC)NC(=O)[C@H](CCCCN)NC(=O)[C@H](CCC(=O)O)NC(=O)[C@@H](NC(=O)[C@H](CCCCN)NC(=O)[C@H](CCCCN)NC(=O)[C@H](Cc1ccccc1)NC(=O)[C@@H](NC(=O)[C@H](CCCCN)NC(=O)[C@H](Cc1c[nH]c2ccccc12)NC(=O)[C@@H](N)CCCCN)C(C)C)[C@@H](C)CC)C(=O)NCC(=O)N[C@@H](C)C(=O)N[C@H](C(=O)N[C@@H](CC(C)C)C(=O)N[C@@H](CCCCN)C(=O)N[C@H](C(=O)N[C@@H](CC(C)C)C(=O)N[C@H](C(=O)N[C@H](C(=O)NCC(=O)N[C@@H](CC(C)C)C(N)=O)[C@@H](C)O)[C@@H](C)O)C(C)C)C(C)C [CB(1-13)M(1-13)] | 0.4 µM | 0.4 µM | 0.3 µM | 1 µM | 4 µM | 1 µM | >400 µM | – | – | – |
| CC[C@H](C)[C@H](NC(=O)CNC(=O)[C@H](CCC(N)=O)NC(=O)[C@H](CCC(N)=O)NC(=O)[C@H](CCCNC(=N)N)NC(=O)[C@H](CCCCN)NC(=O)[C@H](CCCNC(=N)N)NC(=O)[C@H](CCCCN)NC(=O)[C@@H](NC(=O)[C@H](Cc1c[nH]c2ccccc12)NC(=O)[C@H](CO)NC(=O)[C@@H](NC(=O)[C@@H](N)CC(C)C)[C@@H](C)CC)[C@@H](C)CC)C(=O)NCC(=O)N[C@@H](C)C(=O)N[C@H](C(=O)N[C@@H](CC(C)C)C(=O)N[C@@H](CCCCN)C(=O)N[C@H](C(=O)N[C@@H](CC(C)C)C(=O)N[C@H](C(=O)N[C@H](C(=O)NCC(=O)N[C@@H](CC(C)C)C(N)=O)[C@@H](C)O)[C@@H](C)O)C(C)C)C(C)C [M(16-26)M(1-13)] | – | – | – | – | – | – | – | > 240 µM | 40-60 fold | – |
| KWKLFKKIEKVGQNIRDGIGAVLKVL-NH2 [CA(1-17)M(1-9)] | 1 µM | 0.5 µM | 0.5 µM | 5 µM | 4 µM | 0.2 µM | >600 µM | – | – | – |
| CC[C@H](C)[C@H](NC(=O)CNC(=O)[C@H](CCC(N)=O)NC(=O)CNC(=O)[C@@H](NC(=O)[C@H](CCCCN)NC(=O)[C@H](CCC(=O)O)NC(=O)[C@@H](NC(=O)[C@H](CCCCN)NC(=O)[C@H](CCCCN)NC(=O)[C@H](Cc1ccccc1)NC(=O)[C@H](CC(C)C)NC(=O)[C@H](CCCCN)NC(=O)[C@H](Cc1c[nH]c2ccccc12)NC(=O)[C@@H](N)CCCCN)[C@@H](C)CC)C(C)C)C(=O)NCC(=O)N[C@@H](C)C(=O)N[C@H](C(=O)N[C@@H](CC(C)C)C(=O)N[C@@H](CCCCN)C(=O)N[C@H](C(=O)N[C@@H](CC(C)C)C(=O)N[C@H](C(=O)N[C@H](C(=O)NCC(=O)N[C@@H](CC(C)C)C(N)=O)[C@@H](C)O)[C@@H](C)O)C(C)C)C(C)C [CA(1-13)M(1-13)] | – | – | – | – | – | – | – | > 100 µM | – | greater than 200 µM |
| CC[C@H](C)[C@H](NC(=O)CN)C(=O)NCC(=O)N[C@@H](C)C(=O)N[C@H](C(=O)N[C@@H](CC(C)C)C(=O)N[C@@H](CCCCN)C(=O)N[C@H](C(=O)N[C@@H](CC(C)C)C(=O)N[C@H](C(=O)N[C@H](C(=O)NCC(=O)N[C@@H](CC(C)C)C(=O)N[C@@H](CCCCN)C(=O)N[C@@H](Cc1c[nH]c2ccccc12)C(=O)N[C@@H](CCCCN)C(=O)N[C@@H](CC(C)C)C(=O)N[C@@H](Cc1ccccc1)C(=O)N[C@@H](CCCCN)C(=O)N[C@@H](CCCCN)C(=O)N[C@H](C(=O)N[C@@H](CCC(=O)O)C(=O)N[C@@H](CCCCN)C(=O)N[C@H](C(=O)NCC(=O)N[C@@H](CCC(N)=O)C(=O)N[C@@H](CC(N)=O)C(=O)N[C@H](C(=O)N[C@@H](CCCNC(=N)N)C(=O)N[C@@H](CC(=O)O)C(=O)NCC(=O)N[C@H](C(=O)N[C@H](C(=O)N[C@@H](CCCCN)C(=O)N[C@@H](C)C(N)=O)[C@@H](C)CC)[C@@H](C)CC)[C@@H](C)CC)C(C)C)[C@@H](C)CC)[C@@H](C)O)[C@@H](C)O)C(C)C)C(C)C [M(1-13)CA(1-22)] | 0.2 µM | – | 0.7 µM | – | 5* µM | 1 µM | 40? µM | – | – | – |
